Measurements reported in patent publication US6989270B1, “Using polyamide nucleic acid oligomers to engender a biological response” (Mayo Foundation for Medical Education and Research, priority 1997, dated 2006).

Key:
[1] = tested on: neurotensin receptor-1 (NTR1); test: Hot plate test of NT-mediated anti-nociception in PNA-treated rats; format: in vivo, rat
Experimental: Under an Institutional Animal Care and Use Committee approved protocol and under sterile conditions male Sprague-Dawley rats (180-200 g) were stereotaxically implanted with stainless steel guide cannulae (26 gauge) into the PAG under sodium pentobarbital anesthesia (50 mg/kg, i.p.) as described in detail elsewhere (Jensen T. S. and Yaksh T. L., Brain Res. 372:301-312 (1986) and Al-Rodhan N.R.F., Brain Res. 557:227-235 (1991)). The coordinates used for PAG cannulations are -5.6 mm posterior from bregma, 1.0 mm lateral from bregma, and 5.5 mm down from the dura. The guide cannula was pre-measured to be 5.5 mm (Plastics One, Roanoke, Va.) and the internal cannula was ordered to fit below the pedestal with a 2.0 mm projection. The guide cannula was then fixed to the skull using a stainless steel screw (⅛ inch) and cranioplastic cement. A stainless steel stilette was then placed in each guide to keep it patent and free of debris. Immediately after surgery, the animals were allowed to recover before returning them to an individual housing cage. All injections began 5-7 days after surgery.
NTR1-PNA oligomers were injected, using a Hamilton digital syringe, into the PAG through the internal cannula, which extended 2 mm below the guide tip. The internal cannula was connected with a length of polyethylene tubing (PE-20) filled with saline solution. A small air bubble was introduced into the tubing to separate the saline from a solution containing 1.3 nmol of NTR1-PNA oligomers in artificial cerebral-spinal fluid (ACSF). The volume of the solution containing the NTR1-PNA oligomers was about 1.0 μl. The bubble was used to confirm the movement of this solution through the polyethylene tubing.
NTR1-PNA oligomers were injected into the PAG of each rat three times, on days -4, -2, and 0. Controls included rats receiving no injections, rats receiving injections of ACSF only, and rats receiving PNA oligomers having sequence specificity for an unrelated polypeptide, the mu-1 morphine receptor (MU1R). The sequence of MU1R-PNA is 5′-[…]-3′ (SEQ ID NO: 2).
The injection of NT in the PAG of rats produces a potent anti-nociceptive response as well as hypothermia. These responses are mediated by specific NT receptors and are not inhibited by naloxone. A very sensitive and reliable hot plate test was used to measure the anti-nociceptive effects of NT (Al-Rodhan N.R.F., Brain Res. 557:227-235 (1991)).
NTR1-PNA, MU1R-PNA, and ACSF treated as well as untreated rats were analyzed using the hot plate test for NT. One day after the last treatment, each rat was analyzed as follows. Fifteen minutes prior to testing, a pre-drug latency measurement was made by placing the rat on a hot plate maintained at a temperature of 52±0.15° C. and recording the time elapsed before the rat licked either of its hindpaws. In addition, the temperature of the rat was taken using a thermister probe inserted 3 cm in the rectum to determine the pre-drug body temperature (BT). After making these measurement, an appropriate dose of NT (18 nmol) at a volume of about 0.5 ul was administered into the PAG as described above. Thirty minutes after administering NT, the rat was again placed on a hot plate maintained at a temperature of 52±0.15° C. and the latency between the time the rat was placed on the surface and the time it licked either of its hindpaws was measured. […] Hot plate tests were scored as the percent of maximum possible effect (% MPE) and calculated using the following equation: % MPE=[(post-drug latency−pre-drug latency)/(cut-off−pre-drug latency)]×100; where the cut-off is 30 seconds. […] This average for untreated control rats was used to set the baseline MPE value to 100. Immediately after the 30 second hot plate test, BT was taken to measure NT-induced hypothermia using a thermister probe inserted 3 cm in the rectum. […] All test situations were compared to these baseline values derived from NT responsive untreated controls. […]

[2] = tested on: neurotensin receptor-1 (NTR1); test: NT-induced hypothermia (rectal body temperature) in PNA-treated rats; format: in vivo, rat
Experimental: NTR1-PNA, MU1R-PNA, and ACSF treated as well as untreated rats were analyzed using the hot plate test for NT. One day after the last treatment, each rat was analyzed as follows. Fifteen minutes prior to testing, a pre-drug latency measurement was made by placing the rat on a hot plate maintained at a temperature of 52±0.15° C. and recording the time elapsed before the rat licked either of its hindpaws. In addition, the temperature of the rat was taken using a thermister probe inserted 3 cm in the rectum to determine the pre-drug body temperature (BT). After making these measurement, an appropriate dose of NT (18 nmol) at a volume of about 0.5 ul was administered into the PAG as described above. Thirty minutes after administering NT, the rat was again placed on a hot plate maintained at a temperature of 52±0.15° C. and the latency between the time the rat was placed on the surface and the time it licked either of its hindpaws was measured. […] Hot plate tests were scored as the percent of maximum possible effect (% MPE) and calculated using the following equation: % MPE=[(post-drug latency−pre-drug latency)/(cut-off−pre-drug latency)]×100; where the cut-off is 30 seconds. […] This average for untreated control rats was used to set the baseline MPE value to 100. Immediately after the 30 second hot plate test, BT was taken to measure NT-induced hypothermia using a thermister probe inserted 3 cm in the rectum. […] All test situations were compared to these baseline values derived from NT responsive untreated controls.
AS-NTR1-PNA, mismatch-AS-NTR1-PNA, and MU1R-PNA were injected intraperitoneally (10 mg/kg) independently, into separate groups of male Sprague-Dawley rats (Harlan, Prattville, Ala.). The sense-NTR1-PNA oligomer, however, was microinjected directly into the periaqueductal gray (PAG; 5 μg), the major area in the brain involved with perception of pain (nociception). […] Thirty minutes after receiving NT, animals were scored for anti-nociception (hot plate at 52° C.) and hypothermia (rectal probe). Again, anti-nociception scores were calculated as percent of maximum possible effect (% MPE) with the following equation: % MPE=[(post-drug latency time minus pre-drug latency time)/(cut-off time minus pre-drug latency time)]×100; where the cut-off time (i.e., the time when the animal was removed from the device) was 30 seconds for a hot plate test and 12 seconds for a tail flick test. Statistical analysis was done using the rank sum test.

[3] = PNA injected into PAG on days -4, -2, 0

Substance: NTR1-PNA: 12-mer antisense PNA oligomer to rat NTR1 coding region, 5′-CATTGCTCAAAC-3′ (SEQ ID NO: 1) (all peptide nucleic acid (PNA))
- anti-nociception score (hot plate) after NT ([1]; 10 mg/kg intraperitoneally, NT 18 nmol into PAG 24 hours later): 25 % MPE
- time until which NT-mediated anti-nociception remained significantly reduced [1, 3]: day five
- Responsiveness: NT (anti-nociception and hypothermia) ([1]; intraperitoneal administration, Table VI): lost
- time for responses to NT to return to baseline levels after PNA injection ([1]; single injection 10 mg/kg, tested every 24 hours with NT): ≤ 48 h
- body temperature change in response to NT ([2]; 10 mg/kg intraperitoneally, NT 18 nmol 24 hours later): −0.5 °C
- time until which NT-mediated hypothermia remained significantly reduced [2, 3]: day six
- ED50 for reducing NT hypothermia ([2]; intraperitoneal dose-response, one batch of PNA): 3.2 mg/kg
